Experimental data taken from publication PMC3678512, “Synthesis and physicochemical characterization of novel phenotypic probes targeting the nuclear factor-kappa B signaling pathway” (Beilstein Journal of Organic Chemistry, 2013).
In brackets after ≈: the same amount, converted by molar mass. Read-outs that look alike come from different tables or passages of the source.

Legend:
[1] = Hepatic microsome stability, human; type: in vitro ADME; details: human, compound at 1 μM, 60 min
Experimental: (§1) The probes were evaluated using known in vitro ADME/T assays to understand their overall pharmacological properties (Table 2). […] The PAMPA (parallel artificial membrane permeability assay) assay is used as an in vitro model of passive, transcellular permeability. An artificial membrane immobilized on a filter is placed between a donor and acceptor compartment. […] It is not yet known whether it represents a species specific CPY450 inhibitor.

[2] = tested on: NOD1 (γ-tri-DAP) dependent IL-8 secretion; test: NOD1 (γ-tri-DAP) dependent IL-8 secretion; type: cell-based
[3] = PAMPA (parallel artificial membrane permeability assay); type: in vitro ADME
Experimental: as §1

[4] = Hepatic toxicity in immortalized human hepatocytes; type: cell-based; details: Fa2N-4 immortalized human hepatocytes, read-out: Hepatic toxicity LC50
Experimental: as §1

NOD2 = test: MDP-stimulated signal transduction in NOD2 reporter cell lines; type: cell-based; details: reporter cell lines with low or overexpressed NOD2
[5] = tested on: non-NOD-stimulated NF-κB pathways; test: Non-NOD-stimulated NF-κB pathway reporter assays (TNF-α, doxorubicin, PMA/ionomycin); type: cell-based; details: doxorubicin and PMA/ionomycin reporter assays
[6] = tested on: TNF-α-dependent IL-8 secretion in MCF-7 cells; test: TNF-α-dependent IL-8 secretion in MCF-7 cells; type: cell-based
[7] = Hepatic microsome stability, mouse; type: in vitro ADME; details: compound at 1 μM, 60 min
Experimental: as §1

Aqueous solubility = type: physicochemical; details: for solubility: aqueous medium
Experimental: as §1

NOD1 = molecular target: T1, NOD1 (Homo sapiens, UniProt Q9Y239); test: γ-tri-DAP-stimulated luciferase production in HEK 293T cells (NF-κB-linked reporter assay); type: cell-based; details: HEK 293T cells with endogenous NOD1, NF-κB-linked reporter; read-out: IC50, inhibition of γ-tri-DAP-stimulated luciferase production
T1 construct: luciferase production in HEK 293T cells, which has endogenous NOD1 levels; endogenous in cells; host or cells: HEK 293T
T1 sequence (Q9Y239 1-953): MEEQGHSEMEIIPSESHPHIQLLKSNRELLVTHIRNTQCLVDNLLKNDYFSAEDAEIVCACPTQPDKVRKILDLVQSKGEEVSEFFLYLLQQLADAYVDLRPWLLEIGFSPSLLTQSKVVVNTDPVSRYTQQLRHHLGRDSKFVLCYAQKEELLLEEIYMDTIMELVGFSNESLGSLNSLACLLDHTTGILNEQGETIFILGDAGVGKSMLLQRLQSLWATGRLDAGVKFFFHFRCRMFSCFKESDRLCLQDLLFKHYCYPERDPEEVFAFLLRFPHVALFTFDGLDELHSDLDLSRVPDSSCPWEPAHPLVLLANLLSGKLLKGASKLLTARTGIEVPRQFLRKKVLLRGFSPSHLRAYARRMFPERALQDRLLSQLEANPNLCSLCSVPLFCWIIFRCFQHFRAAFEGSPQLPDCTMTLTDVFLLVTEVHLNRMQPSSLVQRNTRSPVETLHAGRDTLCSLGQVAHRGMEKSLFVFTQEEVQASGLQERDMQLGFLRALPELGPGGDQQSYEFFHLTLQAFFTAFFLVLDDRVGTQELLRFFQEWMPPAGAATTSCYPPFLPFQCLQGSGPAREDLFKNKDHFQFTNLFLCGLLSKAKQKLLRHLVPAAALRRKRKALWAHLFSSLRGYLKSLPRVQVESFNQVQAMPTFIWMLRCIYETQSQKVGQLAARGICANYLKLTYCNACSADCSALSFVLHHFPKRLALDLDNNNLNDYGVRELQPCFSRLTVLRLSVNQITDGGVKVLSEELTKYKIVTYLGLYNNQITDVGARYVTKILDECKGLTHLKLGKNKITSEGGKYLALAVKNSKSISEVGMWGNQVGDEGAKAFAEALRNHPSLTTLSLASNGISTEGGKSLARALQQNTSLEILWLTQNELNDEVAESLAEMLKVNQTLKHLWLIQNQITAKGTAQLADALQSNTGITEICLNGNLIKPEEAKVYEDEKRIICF

[8] = tested on: NOD2-dependent IL-8 secretion in MCF-7 cells; test: NOD2-dependent IL-8 secretion in MCF-7 cells; type: cell-based

In the case of C/C=C/Cn1c(SCCCc2ccccc2)nc2c1c(=O)[nH]c(=O)n2C [Probe 17], the “Hepatic microsome stability, human (% remaining)” value [1] is reported as 8.8 % remaining, the “Inhibition of NOD1 (γ-tri-DAP) dependent IL-8 secretion” value [2] is reported as “selectively inhibited IL-8 secretion” and the “PAMPA Pe, donor pH 5.0” value ([3]; donor pH 5.0, acceptor pH 7.4, compound at 50 μM) is reported as 1269 10^−6 cm/s. For the same compound, the “PAMPA Pe, donor pH 6.2” value ([3]; donor pH 6.2, acceptor pH 7.4, compound at 50 μM) was 1516 10^−6 cm/s, the “PAMPA Pe, donor pH 7.4” value ([3]; donor pH 7.4, acceptor pH 7.4, compound at 50 μM) was 1344 10^−6 cm/s and the CC50 [4] was greater than 50000 nM. For the same compound, the “Selectivity for NOD1-dependent over MDP-stimulated (NOD2-dependent) signal transduction” value (NOD2) was greater than 8 fold, the “Selectivity over non-NOD-stimulated NF-κB pathways” value [5] was “selective” and the “Inhibition of TNF-α-dependent IL-8 secretion” value [6] was “neither inhibited”. For the same compound, the “Hepatic microsome stability, mouse (% remaining)” value [7] was 0.86 % remaining, the “Solubility (in words)” value (Aqueous solubility; across pH 5 to 7.4) was “lowest solubility” and the solubility (Aqueous solubility; aqueous buffer, pH 5.0, read-out: Aqueous solubility pH 5.0) was 1.5 µM (≈ 0.556 µg/mL). For the same compound, the solubility (Aqueous solubility; pH 6.2, aqueous buffer, read-out: Aqueous solubility pH 6.2) was 1.8 µM (≈ 0.667 µg/mL), the solubility (Aqueous solubility; pH 7.4, aqueous buffer, read-out: Aqueous solubility pH 7.4) was 1.7 µM (≈ 0.63 µg/mL) and the IC50 (NOD1) was 1540 nM. For the same compound, the “Inhibition of NOD2-dependent IL-8 secretion” value [8] was “neither inhibited”.
